# Assay results reported in patent publication US20050155119A1, “Chlorophyllous totipotent cell cultures” (Dow AgroSciences LLC, priority 2004, published 2005).
# How the values were obtained:
# [1] = system: PS-II electron transport; assay: Oxygen electrode determination of photosynthetic electron transport with diuron; format: cell-based, maize
# Description: The oxygen electrode was set up per manufacturer's instructions by covering the silver electrode with layers of KCl solution, cigarette paper, and PTFE gas permeable membrane. The circulating water bath used to maintain a constant temperature of 24° C. during the course of the experiments. An experiment was initiated by the addition of 1 mL of suspension containing 100 mg of the green suspension cells to the electrode chamber. Oxygen uptake within the chamber was limited by the insertion of a plunger to the level of the liquid, and the flea magnet was turned on to assure adequate mixing during each experiment. Data points were collected by LabVIEW 5.1 and sent to an EXCEL spreadsheet. Data points were collected at a rate of 0.2/sec over 70 scans. […]
# Photosynthetic electron transport was measured with an oxygen electrode in the absence and presence of diuron (DCMU), a PS-II electron transport inhibitor at several concentrations (Figure below). […] A light intensity of 225 μmol M^−2 S^−1 photosynthetic photon flux density was used to drive electron transport, and oxygen evolution was measured polarographically.
# Whether or not Diuron treatment lead to inhibition of oxygen was investigated using an oxygen electrode. To determine amount of photosynthesis occurring in the cells, respiration rates were measured with and without the exposure of the cells to a strong light source. […]
# [2] = system: green suspension cells; assay: Response of the green maize suspension to streptomycin and spectinomycin; format: cell-based
# [3] = system: Brassica juncea; conditions: 100 mg Zn/l (1529 μm) added to soil mixtures; cited from earlier work
# [4] = system: Halophila ovalis; conditions: 10 mg/l of Zn (153 μm); cited from earlier work
# [5] = system: maize; conditions: in vivo; cited from earlier work
# [6] = system: rice; conditions: in vivo; cited from earlier work
compound,measurement,setting,value
CN(C)C(=O)Nc1ccc(Cl)c(Cl)c1 [diuron],concentration with greater effect of inhibiting the light reaction of photosynthesis,"[1]; 100 mg green suspension in 1 mL, illuminated, oxygen electrode",0.01 M
same,effect on light induced oxygen evolution,"[1]; green suspension, FIG. 4",cut down the light induced oxygen evolution
[H]/N=C(/N)N[C@H]1[C@H](O)[C@@H](O)[C@H](O[C@@H]2O[C@@H](C)[C@](O)(C=O)[C@H]2O[C@@H]2O[C@@H](CO)[C@H](O)[C@@H](O)[C@@H]2NC)[C@@H](N/C(N)=N\[H])[C@@H]1O [Streptomycin],plants recovered when germinated in Streptomycin-containing medium,[2]; 62.5 mg/L,albino plants were recovered
same,bleaching of cells,[2]; 125 mg/L,fully bleached
same,plants recovered when germinated in Streptomycin-containing medium,[2]; 125 mg/l (FIG. 2 legend),albino plants were recovered
same,bleaching of cells,[2]; 250 mg/L (FIG. 2 legend),partially bleached
same,appearance of cells,[2]; 500 mg/L,excessive browning and necrosis
same,growth and appearance of green suspension cells,"[2]; 500 mg/l, after ~4 weeks","growth was inhibited, and the cells were bleached or browned and showed excessive necrosis"
"[Zn] [Zn, Zinc]",phytotoxicity,[3],not phytotoxic
same,total chlorophyll concentrations,[4],increase in total chlorophyll concentrations
CN[C@@H]1[C@H](O)[C@H](NC)[C@H]2O[C@@]3(O)C(=O)C[C@@H](C)O[C@H]3O[C@@H]2[C@H]1O [spectinomycin],response of the green suspension,[2]; various spectinomycin concentrations,did not respond
"[Cu] [Cu, Copper]",No Observable Adverse Effect Level (tissue concentration that did not decrease top growth),[5],40 mg/kg
same,critical Cu toxicity level,[5],20 mg/kg
same,critical level of Cu,[5],21 mg/kg
same,critical Cu toxicity level,[6],20 mg/kg
